Measurements from publication PMC4047118, “BM-1197: A Novel and Specific Bcl-2/Bcl-xL Inhibitor Inducing Complete and Long-Lasting Tumor Regression In Vivo” (PLoS ONE, 2014).
Values joined by “and” are separate entries in the source; they are usually repeats but may differ in a detail not shown here. Equal values may be shown once. Read-outs that look alike come from different tables or passages of the source.

Assays:
Bcl-2 = Bcl-2 (Homo sapiens, UniProt P10415); test: fluorescence-polarization (FP) binding assay, Bcl-2; details: means ± SD (n≥3)
Sequence of Bcl-2 (P10415 whole entry): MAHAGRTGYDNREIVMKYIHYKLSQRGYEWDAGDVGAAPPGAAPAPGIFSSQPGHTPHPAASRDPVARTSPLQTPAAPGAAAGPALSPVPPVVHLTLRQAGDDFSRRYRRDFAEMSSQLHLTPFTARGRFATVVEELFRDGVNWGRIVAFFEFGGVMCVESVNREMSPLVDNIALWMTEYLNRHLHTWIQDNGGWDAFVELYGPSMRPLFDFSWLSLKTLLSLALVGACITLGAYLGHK
Source text: BM-1197 ( Fig 1 ), was synthesized in a similar manner as described for BM-1074 [16]. We evaluated the binding affinities of BM-1197 to Bcl-2, Bcl-xL and Mcl-1 proteins using our optimized fluorescence-polarization (FP) binding assays.
Data are expressed as means ± SD (n≥3).

Bcl-xL = target: T1, Bcl-xL (Mus musculus, UniProt Q64373); test: cellular thermal shift assay (CETSA), Bcl-xL; type: cell-based; details: MEF MCL1−/− cells
T1 construct: endogenous in cells; host or cells: MEF MCL1-/- cells
T1 sequence (Q64373 whole entry): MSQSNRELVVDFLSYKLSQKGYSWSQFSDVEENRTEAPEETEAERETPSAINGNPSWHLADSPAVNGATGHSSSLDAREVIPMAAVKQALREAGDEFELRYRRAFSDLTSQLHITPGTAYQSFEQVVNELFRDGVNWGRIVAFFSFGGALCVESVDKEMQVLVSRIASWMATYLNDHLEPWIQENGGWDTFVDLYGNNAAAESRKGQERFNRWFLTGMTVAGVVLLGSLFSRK
Protocol: Drug-target engagement was assessed using CETSA as described by Molina et al.. Briefly, cells were treated with drugs for 1 h, then harvested, washed with PBS, and resuspended in PBS. The resuspended cells were freeze-thawed 4 times. The soluble fraction (lysate) was separated from cell debris by centrifugation at 20000×g for 20 minutes at 4°C and then analyzed by Western blots.
Drug-treated cells were heated at gradient temperature from 42°C to 62°C for 3 min then freeze-thawed 4 times. The soluble fractions of the lysed cells were analyzed by immunoblotting. (B) MEF MCL1^− ^/− cells were treated with drugs at the indicated doses for 1 h before collected for CETSA.

[1] = system: BM-1197-insensitive SCLC cell lines; test: MCL1 shRNA knockdown, growth inhibition by WST assay; type: cell-based, human; details: MCL1 shRNA 2 days, then drug 2 days
Protocol: ON-TARGETplus SMARTpools for mouse Bax and Bak and non-targeting negative control siRNAs were obtained from Dhamarcon. Transfection was performed using Lipofectamine RNAiMAX (Invitrogen). Lentiviral vector for scrambled and human MCL1 shRNA and lentivirus infection were described previously. Immunoblotting was performed using a published procedure. For immunoprecipitation assays, cells lysed with CHAPS buffer (150 mM NaCl, 10 mM HEPES [pH 7.4], 0.5% Chaps) or Triton buffer (150 mM NaCl, 10 mM HEPES [pH 7.4], 0.5% Triton X-100) supplemented with Complete protease inhibitors (Roche). Immunoprecipitation and immunoblot assays were performed with the indicated antibodies. Active Bax was detected by immunoprecipitation with the Bax 6A7 antibody, which recognizes only the conformationally changed Bax protein [27].
Figure 12 Effects of MCL1 knockdown on BM-1197-induced apoptosis. (A) Cells were transduced with lentiviral particles containing scrambled (SCR) or MCL1-specific shRNAs for 2 days, then treated with BM-1197 for 2 days. The growth-inhibitory activity of BM-1197 was assessed by WST assay. Data are representative of three independent experiments. (B) Cells were transduced with lentiviral particles containing scrambled (SCR) or MCL1-specific shRNAs for 2 days then treated with BM-1197 (100 nM) for 20 h before harvested for immunoblotting.

[2] = system: MCL1-wild-type (WT) MEF cells; test: cell growth inhibition, WST assay, wild-type MEF; type: cell-based; details: Mus musculus, 72 h, 3 days
Protocol: (§1) All the SCLC cell lines were purchased from American Type Culture Collection (Manassas, VA) and cultured as recommended. All these cell lines were passaged fewer than 6 months after purchase. MCL1 knockout (MCL1^−/−) MEF cells were kindly provided by Dr. David Huang (The Walter and Eliza Hall Institute of Medical Research, Melbourne, Australia). Cell growth inhibition was evaluated by means of a WST-8 assay (Dojindo, Rockville, MD) as described previously. Mitochondrial membrane potential was determined by JC-1 staining using a JC-1 Mitochondrial Membrane Potential Assay kit (Cayman). Apoptosis analysis was performed using an Annexin V/propidium iodide (PI) apoptosis detection kit (Roche Applied Sciences, Indianapolis, IN).
(B) MCL1^−/− cells were treated with 100 nM of BM-1197 for 16 h and stained with Annexin V/PI for flow cytometry. […] They are given in the order upper left, upper right, lower left, lower right.

H211 = test: SCLC cell growth inhibition (WST-8), H211; type: cell-based; details: Homo sapiens, NCI-H211; 96-h incubation, means ± SD (n = 3–6)
Protocol: as §1

H146 = test: SCLC cell growth inhibition (WST-8), H146; type: cell-based; details: Homo sapiens
Protocol: as §1
Data are representative of two independent experiments.

platelets = test: platelet count / on-target platelet toxicity in mice; type: in vivo
Protocol: BM-1197 was administered by IV bolus injected into the tail vein of the mice. Mice were euthanized at different time points with CO2, then ∼0.2 ml of blood was drawn by cardiac puncture using an EDTA treated syringe, transferred to an EDTA treated tube and sent immediately for a Complete Blood Count. The samples were read at the University of Michigan Animal Diagnostic Laboratory on a HEMAVET 950FS Hematology Analyzer.
Figure 11 BM-1197 decreases platelet count in mice. BM-1197 was administered by IV bolus injected into the tail vein. At the indicated time points the mice were euthanized and blood was drawn for complete blood count. Data are mean ± SEM (n = 3).

Which IC50 (Bcl-2) does the source give for `Cc1c(S(C)(=O)=O)c(-c2cc(F)cc(N3CCN(c4ccc(NS(=O)(=O)c5ccc(N[C@H](CCN6CCC(O)CC6)CSc6ccccc6)c(S(=O)(=O)C(F)(F)F)c5)cc4)CC3)c2)c(-c2ccc(Cl)cc2)n1C(C)C` [BM-1197] here?
The IC50 was 3.5 ± 0.7 nM.

What about the Ki (Bcl-2) of the same molecule?
The Ki was < 1 nM and 0.7 nM.

And the “thermal stability of Bcl-xL protein” value (Bcl-xL; 1 µM, 1 h)?
The value was “enhanced”.

What about the “lowest concentration that efficiently stabilized BCL-xL protein” value (Bcl-xL; 1 h treatment) of the same molecule?
The value was 16 nM.

What about the “insensitive cell lines in which depletion of MCL1 dramatically enhanced inhibitory activity” value [1] of the same molecule?
The value was 4 of 5.

What about the IC50 [2] of the same molecule?
Its IC50 is > 2000 nM.

What about the IC50 (H211) of the same molecule?
Its IC50 is 6 ± 5 nM.

What about the IC50 (H146; NCI-H146, 96 h, read-out: IC50 (1% FBS), H146, 4 days, WST assay, 1% FBS) of the same molecule?
Its IC50 is 1.9 nM.

What about the IC50 (H146; NCI-H146, 96 h, read-out: IC50 (1% FBS+3% HSA), H146, 4 days, WST assay, 1% FBS+3% HSA) of the same molecule?
Its IC50 is 1.9 nM.

What about the IC50 (H146; NCI-H146, 96 h, read-out: IC50 (10% FBS), H146, 4 days, WST assay, 10% FBS) of the same molecule?
The IC50 was 2.6 nM.

And the IC50 (H146; NCI-H146, 96 h, read-out: IC50 (50% FBS), H146, 4 days, WST assay, 50% FBS)?
Its IC50 is 4.8 nM.

And the IC50 (H146; NCI-H146, 96-h incubation, means ± SD (n = 3–6), read-out: IC50 cell growth, H146)?
The IC50 was 3 ± 2 nM.

And the lowest platelet count (platelets; 15 mg/kg IV bolus, at 24 h)?
The lowest platelet count was 96000 µL⁻¹.

And the bleeding (platelets; repeated daily or weekly intravenous doses in efficacy experiments)?
Its bleeding is “did not observe any bleeding”.
